The target in the test is SARS-CoV-2 3CLpro (Severe acute respiratory syndrome coronavirus 2, UniProt P0DTD1). The experiment in a line: biochemical. The test is classed as biochemical. More on the design: Replicate_1 / Replicate_2 / mean / mean (LOPAC_screen_w_protease): unit not given here.
[1] abbreviates: LOPAC1280 primary screen with protease, 5 µM compound, replicate 1.
The mark [2] stands for this setting: LOPAC1280 primary screen with protease, 5 µM compound, replicate 2.
[3] abbreviates: LOPAC1280 primary screen with protease, 5 µM compound, mean of the two replicates.
The mark [4] stands for this setting: sheet LOPAC_screen_w_protease, primary screen with protease, mean of two replicates.
The mark [5] stands for this setting: sheet LOPAC_screen_w_protease, primary screen with protease, replicate 1.
The mark [6] stands for this setting: sheet LOPAC_screen_w_protease, primary screen with protease, replicate 2.
Setting [7] is: sheet LOPAC_screen_w_protease, primary screen with protease, compound at 5 µM, mean of two replicates.
Setting [8] is: sheet LOPAC_screen_w_protease, primary screen with protease, compound at 5 µM, replicate 1.
The mark [9] stands for this setting: sheet LOPAC_screen_w_protease, primary screen with protease, compound at 5 µM, replicate 2.

Like-named read-outs stand apart in the source and are kept apart here.

Take `Br.Oc1cc2c(c(Cl)c1O)CCNCC2c1ccccc1` (racemic) [(±)-6-Chloro-PB hydrobromide]: where the note is “sheet LOPAC_screen_w_protease, primary screen at 5 µM, mean of two replicates”, the “mean (LOPAC screen with protease)” value came to 66.2827. In addition, the “Replicate_1 (LOPAC screen with protease)” value (sheet LOPAC_screen_w_protease, primary screen at 5 µM, replicate 1) stood at 64.3769. The “Replicate_2 (LOPAC screen with protease)” value (sheet LOPAC_screen_w_protease, primary screen at 5 µM, replicate 2) was 68.1884.

In the case of `Br.CCCN(CCC)C1CCc2ccc(O)cc2C1` (racemic) [(±)-7-Hydroxy-DPAT hydrobromide], where the note is “LOPAC1280 primary screen with protease, 5 µM compound, mean of two replicates”, the “mean (LOPAC_screen_w_protease)” value worked out at 1.681. Besides, the “Replicate_1 (LOPAC_screen_w_protease)” value under setting [1] came to 3.951. Besides, the “Replicate_2 (LOPAC_screen_w_protease)” value under setting [2] is given as -0.5891.

`Br.CCCN(CCC)C1CCc2cccc(O)c2C1` (racemic) [(±)-8-Hydroxy-DPAT hydrobromide]: the “mean (LOPAC_screen_w_protease)” value under setting [3] is 1.82. Moreover, the “Replicate_1 (LOPAC_screen_w_protease)” value under setting [1] is on record as 3.36. For the same compound, the “Replicate_2 (LOPAC_screen_w_protease)” value under setting [2] came out at 0.2793.

Turning to `Br.Cc1o[nH]c(=O)c1CC(N)C(=O)O` (racemic) [(±)-AMPA hydrobromide], the mean under setting [4] was 2.246. In addition, the Replicate_1 under setting [5] was 3.765. Besides, the Replicate_2 under setting [6] was found to be 0.7264.

Consider `CC1CCN=C(N)S1.Cl` (racemic) [(±)-AMT hydrochloride], for which the Replicate_1 worked out at 3.477, the Replicate_2 was 0.9466 and the mean was 2.212.

In the case of `NCC(CC(=O)O)c1ccc(Cl)cc1` (racemic) [(±)-Baclofen], the mean under setting [4] is reported as 2.345. Moreover, the Replicate_1 under setting [5] came to 1.225. Also, the Replicate_2 under setting [6] came out at 3.465.

For `COC(=O)C1=C(C)NC(C)=C([N+](=O)[O-])C1c1ccccc1C(F)(F)F` (racemic) [(±)-Bay K 8644], the mean under setting [7] was found to be 3.088. The Replicate_1 under setting [8] is reported as 2.534. Under setting [9], this compound showed a Replicate_2 of 3.642.

`CN(C)CCC(c1ccc(Br)cc1)c1ccccn1.O=C(O)/C=C\C(=O)O` (racemic) [(±)-Brompheniramine maleate] registered a mean under setting [7] of 2.6339. Under setting [8], this compound returned a Replicate_1 of 2.5605. The same compound returned a Replicate_2 under setting [9] of 2.707.

Compound `CC(C)(C)C1(O)CCN2CC3c4ccccc4CCc4cccc(c43)C2C1.Cl` (racemic) [(±)-Butaclamol hydrochloride] had a Replicate_1 of 4.433, a Replicate_2 of 5.727 and a mean of 5.08.

Compound `CC(C)(C)NCC(O)COc1cccc2[nH]c(=O)[nH]c12.Cl` (racemic) [(±)-CGP-12177A hydrochloride] yielded a mean (sheet LOPAC_screen_w_protease, LOPAC1280 at 5 µM, mean of two replicates) of 1.308. In addition, the Replicate_1 (sheet LOPAC_screen_w_protease, LOPAC1280 at 5 µM, replicate 1) is recorded as 3.897. Under “sheet LOPAC_screen_w_protease, LOPAC1280 at 5 µM, replicate 2”, this compound had a Replicate_2 of -1.282.

With `O=C(O)C1CN(CCCP(=O)(O)O)CCN1` (racemic) [(±)-CPP], the mean (sheet LOPAC_screen_w_protease, LOPAC1280 primary screen with protease, 5 µM compound, mean of the two replicates) is 4.122. Besides, the Replicate_1 (sheet LOPAC_screen_w_protease, LOPAC1280 primary screen with protease, 5 µM compound, replicate 1) amounted to 5.3739. The compound also came in with a Replicate_2 (sheet LOPAC_screen_w_protease, LOPAC1280 primary screen with protease, 5 µM compound, replicate 2) of 2.869.

In turn, `CN(C)CCC(c1ccc(Cl)cc1)c1ccccn1.O=C(O)/C=C\C(=O)O` (racemic) [(±)-Chlorpheniramine maleate] returned a Replicate_1 of 0.5322, a Replicate_2 of -0.472 and a mean of 0.03007.

Consider `COc1cc(CC(C)N)c(OC)cc1I.Cl` (racemic) [(±)-DOI hydrochloride], for which the Replicate_1 turned out to be 4.323, the Replicate_2 stood at 2.796 and the mean was determined as 3.56.

As for `CNCC(O)c1ccc(O)c(O)c1.Cl` (racemic) [(±)-Epinephrine hydrochloride], the Replicate_1 stood at 3.211, the Replicate_2 is 1.4095 and the mean is reported as 2.31.

`NC1CCN(O)C1=O` (racemic) [(±)-HA-966] had a Replicate_1 of 0.2172, a Replicate_2 of 1.666 and a mean of 0.9415.

`N[C@H](C(=O)O)c1cc(O)no1` (racemic) [(±)-Ibotenic acid] had a mean (sheet LOPAC_screen_w_protease, LOPAC1280 primary screen at 5 µM, with protease, mean of the two replicates) of 0.7432. The same compound showed a Replicate_1 (sheet LOPAC_screen_w_protease, LOPAC1280 primary screen at 5 µM, with protease, replicate 1) of 1.025. The compound also returned a Replicate_2 (sheet LOPAC_screen_w_protease, LOPAC1280 primary screen at 5 µM, with protease, replicate 2) of 0.4611.

Consider `CC(C)Cc1ccc(C(C)C(=O)O)cc1` (racemic) [(±)-Ibuprofen], for which, under setting [3], the “mean (LOPAC_screen_w_protease)” value amounted to 1.9945. Further, the “Replicate_1 (LOPAC_screen_w_protease)” value under setting [1] amounted to 3.023. Besides, the “Replicate_2 (LOPAC_screen_w_protease)” value under setting [2] is 0.9655.

The record behind these values is paper PMC7587356, “High-Throughput Screening for Inhibitors of the SARS-CoV-2 Protease Using a FRET-Biosensor” (Molecules, 2020).
